Like-named read-outs stand apart in the source and are kept apart here.
Key:
[1] = test system: Locomotor Activity in Mice; assay: Inhibition of locomotor activity in mice; format: in vivo; details: for ED50: Mus musculus
Experimental: (§1) The compounds of Formula I are valuable dopaminergic agents. […] Thus, the compounds of Formula I were tested for their ability to inhibit locomotor activity in mice and rats, a measure of antipsychotic activity, according to the assay described by J. R. McLean, et al, Pharmacology, Biochemistry and Behavior, Vol. 8, pages 97-99 (1978); for their ability to bind to dopamine receptors as measured by their inhibition of [^3 H]spiroperidol binding in a receptor assay described by D. Grigoriadis and P. Seeman, Journal of Neurochemistry, Vol. 44, pages 1925-1935 (1985); and for their ability to effect dopamine synthesis in rats according to the protocol described by J. R. Walters and R. H. Roth, Naunyn-Schmiedebero's Archives of Pharmacology, Vol. 296, pages 5-14 (1976). The above test methods are incorporated herein by reference. The data in the table show the dopaminergic activity of representative compounds of Formula I.

Brain Dopamine Synthesis = assay: % effects on brain dopamine synthesis in rats; format: in vivo; details: for change in vivo at 10 mg/kg: Rattus norvegicus
Experimental: as §1

dopamine receptors [2] = assay: Inhibition of [^3 H] spiroperidol binding
Experimental: as §1

dopamine receptors [3] = assay: Comparison of 1,3 versus 1,4 series activity (binding and locomotor activity), results in words; details: Table 2
Experimental: (§2) Thus, the compounds of Formula I were tested for their ability to inhibit locomotor activity in mice and rats, a measure of antipsychotic activity, according to the assay described by J. R. McLean, et al, Pharmacology, Biochemistry and Behavior, Vol. 8, pages 97-99 (1978); for their ability to bind to dopamine receptors as measured by their inhibition of [^3 H]spiroperidol binding in a receptor assay described by D. Grigoriadis and P. Seeman, Journal of Neurochemistry, Vol. 44, pages 1925-1935 (1985); and for their ability to effect dopamine synthesis in rats according to the protocol described by J. R. Walters and R. H. Roth, Naunyn-Schmiedebero's Archives of Pharmacology, Vol. 296, pages 5-14 (1976). The above test methods are incorporated herein by reference.
(§3) The most important test is the locomotor activity orally in the rat as this corresponds most closely to human oral administration of an antipsychotic compound.

[4] = test system: Locomotor Activity in Rats; assay: Inhibition of locomotor activity in rats (oral); format: in vivo
Experimental: as §2, §3

[5] = mice, IP (Table 1), read-out: Inhibition of Locomotor Activity in Mice ED50
[6] = rats, 10 mg/kg, IP (Table 1), read-out: % Effects on Brain Dopamine Synthesis in Rats
[7] = mice, IP (Table 2), read-out: Inhibition of Locomotor Activity in Mice ED50
[8] = ip, read-out: Inhibition of Locomotor Activity in Mice ED50, mice, IP (Table 1)
[9] = ip, read-out: % Effects on Brain Dopamine Synthesis in Rats, rats, 10 mg/kg, IP (Table 1)

Row | SMILES | IC50 (dopamine receptors [2]; Table 1) | ED50 [1, 8] | change in vivo at 10 mg/kg (Brain Dopamine Synthesis; [9]) | also measured
1 | C1=C(c2ccccc2)CC(CN2CCN(c3ccccn3)CC2)CC1 (racemic) [Example 4, (±)-1-[(3-phenyl-3-cyclohexen-1-yl)methyl]-4-(2-pyridinyl)piperazine] | 141 nM |  |  | ED50 [1, 5]: 0.85 mg/kg; change in vivo at 10 mg/kg (Brain Dopamine Synthesis; [6]): -61%; IC50 (dopamine receptors [2]; Table 2): 141 nM; binding and locomotor activity (dopamine receptors [3]): very potent
2 | C1=C(c2ccccc2)CC(N2CCN(c3ccccn3)CC2)CC1 (racemic) [Compound J, (±)-1-(3-phenyl-3-cyclohexen-1-yl)-4-(2-pyridinyl)piperazine, reference compound] |  |  |  | ED50 [1, 7]: 28.2 mg/kg; IC50 (dopamine receptors [2]; Table 2): 9850 nM; binding and locomotor activity (dopamine receptors [3]): essentially inactive
3 | C1=C(c2ccccc2)CCC(N2CCN(c3ccccn3)CC2)C1 (racemic) [F, (±)-1-(4-phenyl-3-cyclohexen-1-yl)-4-(2-pyridinyl)piperazine, reference compound] |  |  |  | ED50 [1, 7]: 1.01 mg/kg; IC50 (dopamine receptors [2]; Table 2): 599 nM; binding and locomotor activity (dopamine receptors [3]): much more active than Compound G
4 | C1=C(c2ccccc2)CCN(CC2CCC=C(c3ccccc3)C2)C1 (single isomer, unassigned; (-)) [Example 6a, (-)-1,2,3,6-Tetrahydro-4-phenyl-1-[(3-phenyl-3-cyclohexen-1-yl)methyl]pyridine] | 420 nM |  |  | Inhibition of Locomotor Activity in Mice ED50 ([1]; mice, IP (Table 1)): 5.6 mg/kg; % Effects on Brain Dopamine Synthesis in Rats (Brain Dopamine Synthesis; rats, 10 mg/kg, IP (Table 1)): -34%
5 | C1=C(c2ccccc2)CCC(CCN2CCN(c3ccccn3)CC2)C1 (racemic) [H, (±)-1-[(4-phenyl-3-cyclohexen-1-yl)ethyl]-4-(2-pyridinyl)piperazine, reference compound] |  |  |  | ED50 [1, 7]: 1.1 mg/kg; IC50 (dopamine receptors [2]; Table 2): 409 nM; binding and locomotor activity (dopamine receptors [3]): much more active than Compound G
6 | C1=C(c2ccccc2)CCCC1CN1CC=C(c2ccccc2)CC1 (racemic) [Example 1a, (±)-1,2,3,6-Tetrahydro-4-phenyl-1-[(3-phenyl-2-cyclohexen-1-yl)methyl]pyridine] | 420 nM | 2.5 mg/kg | -34% | 
7 | Fc1ccc(C2=CCCC(CN3CCN(c4ccccn4)CC3)C2)cc1 (racemic) [Example 5, (±)-1-[[3-(4-Fluorophenyl)-3-cyclohexen-1-yl]methyl]-4-(2-pyridinyl)piperazine] | 143 nM | 1.2 mg/kg |  | change in vivo at 10 mg/kg (Brain Dopamine Synthesis; [6]): -58%
8 | C1=C(c2ccccc2)CCN(CC2CCC=C(c3cccs3)C2)C1 (racemic) [Example 2, (±)-1,2,3,6-Tetrahydro-4-phenyl-1-[[3-(2-thienyl)-3-cyclohexen-1-yl]methyl]pyridine] | 202 nM | 1.8 mg/kg | -9% | 
9 | Fc1ccc(C2=CCC[C@@H](CN3CC=C(c4ccccc4)CC3)C2)cc1 [Example 8, (R)-1-[[3-(4-fluorophenyl)-3-cyclohexen-1-yl]methyl]-1,2,3,6-tetrahydro-4-phenylpyridine] | 76 nM | 4 mg/kg | -74% | 
10 | CN(C)c1ccc(C2=CCC[C@@H](CN3CC=C(c4ccccc4)CC3)C2)cc1 [Example 16, (R)-4-[5-[(3,6-dihydro-4-phenyl-1(2H)-pyridinyl)methyl]-1-cyclohexen-1-yl]-N,N-dimethylbenzeneamine] | 53 nM | 0.2 mg/kg | -76% | 
11 | C1=C(c2ccccc2)CCN(C[C@@H]2CCC=C(c3cnc4ccccc4c3)C2)C1 [Example 17, (R)-3-[5-[(3,6-dihydro-4-phenyl-1(2H)-pyridinyl)methyl]-1-cyclohexen-1-yl]quinoline] | 76 nM | 0.23 mg/kg | -21% | 
12 | C1=C(c2ccccc2)CCN(C[C@@H]2CCC[C@H](c3ccccc3)C2)C1.Cl [Example 20, (1R-cis) 1,2,3,6-tetrahydro-4-phenyl-1-[(3-phenylcyclohexyl)methyl]pyridine monohydrochloride] | 71 nM | 0.7 mg/kg | -100% | 
13 | C1=C(c2ccccc2)CC(CN2CCN(c3ccccn3)CC2)C1 (racemic) [Example 25, (±)-1-[(3-phenyl-3-cyclopenten-1-yl)methyl]-4-(2-pyridinyl)piperazine] | 190 nM |  |  | ED50 [1, 5]: 2.7 mg/kg; change in vivo at 10 mg/kg (Brain Dopamine Synthesis; [6]): -45%
14 | Fc1ccc(C2=CC(CN3CCN(c4ccccn4)CC3)CCC2)cc1 (racemic) [Example 5a, (±)-1-[[3-(4-Fluorophenyl)-2-cyclohexen-1-yl]methyl]-4-(2-pyridinyl)piperazine] | 279 nM |  |  | ED50 [1, 5]: 2.2 mg/kg; change in vivo at 10 mg/kg (Brain Dopamine Synthesis; [6]): -48%
15 | C1=C(c2ccccc2)CCN(CC2CCC=C(c3ccccc3)C2)C1 (racemic) [Example 1, (±)-1,2,3,6-Tetrahydro-4-phenyl-1-[(3-phenyl-3-cyclohexen-1-yl)methyl]pyridine] | 72 nM | 1.6 mg/kg | -86% | ED50 ([1]; ip, read-out: Inhibition of Locomotor Activity in Mice ED50, mice, IP (Table 2)): 1.6 mg/kg; locomotor activity orally in the rat ([4]; Table 2 compounds): clearly the most potent; times more active than the 1,4 Compound C, locomotor activity orally in the rat ([4]; versus Compound C): 4.8 times; IC50 (dopamine receptors [2]; Table 2): 72 nM; binding and locomotor activity (dopamine receptors [3]): surprisingly much more active in its binding and locomotor activity
16 | C1=C(c2ccccc2)CCN(CC2CCC=C(c3ccccc3)C2)C1 (single isomer, unassigned; (+)) [Example 6, (+)-1,2,3,6-Tetrahydro-4-phenyl-1-[(3-phenyl-3-cyclohexen-1-yl)methyl]pyridine] | 227 nM |  |  | Inhibition of Locomotor Activity in Mice ED50 ([1]; mice, IP (Table 1)): 1.0 mg/kg; % Effects on Brain Dopamine Synthesis in Rats (Brain Dopamine Synthesis; rats, 10 mg/kg, IP (Table 1)): -50%
17 | C1=C(c2cccnc2)CCC[C@H]1CN1CC=C(c2ccccc2)CC1.Cl.Cl [Example 12a, (R)-3-[3-[(3,6-dihydro-4-phenyl-1(2H)-pyridinyl)methyl]-1-cyclohexen-1-yl]pyridine dihydrochloride] | 87 nM | 0.07 mg/kg | -97% | 

Reference: patent publication US5314896A, “1,3-substituted cycloalkenes and cycloalkanes as central nervous system agents” (priority 1992, dated 1994)
